The target in the assay is T1, Caspase-1 (Homo sapiens, UniProt P29466).
T1 sequence (P29466 whole entry): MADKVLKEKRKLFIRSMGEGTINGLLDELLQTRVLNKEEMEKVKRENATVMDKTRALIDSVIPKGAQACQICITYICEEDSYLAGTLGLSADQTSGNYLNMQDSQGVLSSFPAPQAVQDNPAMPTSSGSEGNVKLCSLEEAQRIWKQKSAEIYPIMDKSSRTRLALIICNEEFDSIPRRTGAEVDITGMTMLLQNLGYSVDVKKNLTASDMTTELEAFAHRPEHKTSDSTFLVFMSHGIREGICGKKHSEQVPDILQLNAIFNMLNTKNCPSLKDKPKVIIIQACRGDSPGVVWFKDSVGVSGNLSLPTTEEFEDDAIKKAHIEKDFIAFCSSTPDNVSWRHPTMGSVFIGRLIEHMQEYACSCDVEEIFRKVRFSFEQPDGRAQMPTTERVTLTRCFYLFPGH
The assay is described as follows: Inhibition of IL-1 beta converting enzyme.

Residues, ends and D or L forms follow the SMILES beside them. *: point of attachment. Hydrocinnamoyl = O=C(CCc1ccccc1)*; Cbz = O=C(OCc1ccccc1)*

As usually defined, the Ki is a dissociation constant, usually derived from enzyme kinetics or from competition with a known ligand. Low values mean higher affinity, high ones lower affinity. As to `CC(=O)NC(C(=O)Nc1ccc(Cc2ccccc2)n(CC(=O)N[C@H](C=O)CC(=O)O)c1=O)c1ccc(O)cc1` (stereo partly specified), affinity was put at a Ki of 54 nM.
`CC(=O)N[C@@H](Cc1ccc(O)cc1)C(=O)N[C@H](C(=O)N[C@@H](C)C(=O)N[C@@H](CC(=O)O)C(=O)O)C(C)C` gave a Ki of 9 nM. This Ki lies about 6-fold lower than the previous one.
In the case of `O=C[C@H](CC(=O)O)NC(=O)Cn1c(-c2ccccc2)ccc(NC(=O)CCc2ccccc2)c1=O` it was 900 nM; in that of `CC(C)[C@H](NC(=O)OCc1ccccc1)C(=O)N[C@@H](C)C(=O)N[C@@H](CC(=O)O)C(=O)O` (Cbz-Val-Ala-Asp-OH), 55 nM; in that of `CC(C)[C@H](NC(=O)OCc1ccccc1)C(=O)NCC(=O)N[C@@H](CC(=O)O)C(=O)O` (Cbz-Val-Gly-Asp-OH), 1300 nM.
Under `CC(C)[C@H](NC(=O)CCc1ccccc1)C(=O)N[C@@H](C)C(=O)N[C@@H](CC(=O)O)C(=O)O` (Hydrocinnamoyl-Val-Ala-Asp-OH) stands 54 nM.

The record behind these values is ChEMBL document CHEMBL1130512, “Structure-based design of non-peptidic pyridone aldehydes as inhibitors of interleukin-1 converting enzyme” (Bioorg Med Chem Lett, 1997).
